Source: US12060408B2, “Screening assays, modulators and modulation of activation of Receptor for Advanced Glycation End-products (RAGE)” (Monash University, priority 2017, dated 2024)
Entries after “also recorded” stand apart in the source; their conditions may differ.

Experiments:
[1] = system: RAGE ligand-independent activation of RAGE by activated AT1R; experiment: Ang II-induced NFκB activation (p65 gene expression, SEAP reporter) in AT1R-CHO cells with RAGE constructs; assay type: cell-based, human
Procedure: Generation of Transgenic Chinese Hamster Ovary Cells
100 ng of AT1R-Rluc8 construct was transfected into CHO cells using Lipofectamine 2000 (Thermo). Stable transfectants were selected using G418. AT1R—CHO were then transiently transfected with RAGE constructs using Lipofectamine 2000 (Invitrogen) and incubated for 16 h. The Homo sapiens AGER transcript variant 1 coding sequence (NM_001136) was synthesised and cloned between the NheI and XbaI sites of pCIneo (Promega) to generate the vector pCIneo-RAGE. This plasmid was then used to generate a library of mutant AGER clones (NP_001127). Primers 1-RAGE-SP-5′ and mCherry-XhoI-NotI-3′ were used to amplify the coding sequence of mCherry from the vector pmCherry-C1. The resultant PCR product was then used as template for a second PCR using primers 2-RAGE-SP-5′ and mCherry-XhoI-NotI-3′. The PCR product generated was digested with NheI and NotI and inserted between the NheI and NotI sites of pCIneo to generate pCIneo-SP-mCherry. The sequence of the insert was confirmed by DNA sequencing (Micromon, Monash University). […]
(§1) Cellular Expression of Pro-Inflammatory Markers and Mediators by Quantitative Real-Time PCR
(§2) After 2 hours of exposure to Ang II (1 μM) or the RAGE ligand, S100A8/A9 (5 ng/ml) cells were placed in Trizol, mRNA extracted and cDNA synthesized. Changes in the gene expression of the NFκB subunit, p65 (RelA) or NFκB-activated target genes (e.g ICAM-1, VCAM-1) were estimated by quantitative real-time RT-PCR, performed using the TaqMan system based on real-time detection of accumulated fluorescence (ABI Prism 7700, Perkin-Elmer Inc, PE Biosystems, Foster City, CA, USA). Gene expression was normalized to 18S mRNA and reported as fold change compared to the level of expression in untreated control mice/cells, which were given an arbitrary value of 1.
Oligopeptides (Cherry-TAT (control), mCherry-TAT-RAGE362-404 and mCherry-S391A-TAT-RAGE362-404 were generated by transformation of the Escherichia coli strain ClearColi BL21 (DE3; Lucigen). A single transformed colony was inoculated into 50 ml 2YT medium containing 100 μg/ml ampicillin and the culture was grown overnight at 37° C. with shaking at 250 rev/min. 10 ml overnight culture was used to inoculate 1 litre 2YT medium containing 100 μg/ml ampicillin and the culture was grown at 37° C. with shaking at 250 rev/min. When the cultures reached an OD600 of 0.8, the temperature was shifted to 15° C. for 30 min after which protein expression was induced by the addition of 1 mM isopropyl β-D-1-thiogalacto-pyranoside (IPTG). Following the addition of IPTG the cultures were grown for ˜16 h at 15° C. with shaking at 250 rev/min. Cells were harvested by centrifugation (3500 g, 4° C., 20 min) and resuspended in ice-cold lysis buffer (50 mM Tris pH 7.4, 300 mM NaCl, 10 mM imidazole and 5 mM beta-mercaptoethanol). The resuspended cells were sonicated and insoluble material was pelleted by centrifugation (13 000 g, 4° C., 30 min). The supernatant was filtered (0.2 μm) and applied onto a gravity-flow column with a 1 ml Ni-NTA Agarose resin bed volume (Qiagen) pre-equilibrated with lysis buffer. After the supernatant was passed over the resin, the column was washed with 100 ml of wash buffer (20 mM imidazole, 50 mM Tris pH 7.4, 150 mM NaCl, 5 mM beta-mercaptoethanol). His-tagged TAT-mCherry and TAT-mCherry-RAGE peptides were eluted from the resin using elution buffer (250 mM imidazole, 50 mM Tris pH 7.4, 150 mM NaCl, 5 mM beta-mercaptoethanol). […]

AT1 = target: T1, AT1 (Homo sapiens, UniProt P30556); experiment: Classical GPCR signalling (IP-one HTRF, EGR1) in AT1R-CHO cells; assay type: cell-based; set-up: expressed in transfected cells; conditions: 1 μM
T1 sequence (P30556 1-359): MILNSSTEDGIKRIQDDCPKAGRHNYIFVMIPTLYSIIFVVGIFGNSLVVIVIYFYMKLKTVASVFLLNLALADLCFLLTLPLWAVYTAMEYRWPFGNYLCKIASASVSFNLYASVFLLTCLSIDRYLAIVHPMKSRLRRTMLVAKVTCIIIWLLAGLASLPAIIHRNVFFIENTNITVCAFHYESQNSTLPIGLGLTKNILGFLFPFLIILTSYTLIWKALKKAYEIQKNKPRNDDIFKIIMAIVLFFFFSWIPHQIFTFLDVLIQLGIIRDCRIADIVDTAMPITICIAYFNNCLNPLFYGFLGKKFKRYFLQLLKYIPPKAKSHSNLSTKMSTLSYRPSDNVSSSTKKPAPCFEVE

[2] = system: primary murine aortic endothelial cells (PMAEC); experiment: Expression of pro-inflammatory markers by real-time RT-PCR in primary murine aortic endothelial cells; assay type: cell-based, mouse
Procedure: Primary aortic endothelial cells (PMAEC) were isolated from the aortae of (wild-type) C57bl6 mice and AGER KO mice and cultured in Dulbecco's modified Eagle's medium (DMEM)/F12 endothelial cell growth supplement (ECGS) supplemented media. Chinese Hamster Ovary (CHO) cells were cultured using F12 media (10% FCS with 2 mM glutamine). Human microvascular endothelial cells (HMEC) were cultured in MCDB 131 medium (10% FCS with 10 mM glutamine, EGF and hydrocortisone).
as §1, §2
Selective Silencing of Gene Expression Using siRNA
PMAEC from C57b/6 mice were also transfected with siRNA to RAGE (2 nM) Ambion, ID:s62119), p65 (RelA) (10 nM; Ambion, ID:s72857), MyD88 (10 nM; Ambion. ID:s201719), PKCζ (10 nM; Ambion, ID:s71716), IQGAP-1, Ambion, ID:s78119), Diaph1 (10 nM; sense5′-[…], antisense 3′-[…]; Invitrogen) or scrambled control #1 (2 nM or 10 nM; Ambion) using Lipofectamine RNAiMAX (Invitrogen) as per manufacturer's instructions. Cells were allowed to recover in media containing 10% FBS for 16 hours prior to treatment with 1 μM Ang II or 5 ng/ml of the RAGE ligand, S100A8/A9, as a signalling control.

Substance | activation of p65-NFκB ([1]; AT1R-CHO cells expressing full-length human RAGE, 1 μM) | expression of p65-NFκB / NFκB activation ([1]; AT1R-CHO cells without RAGE, 1 μM) | classical responsiveness: inositol phosphate synthesis and EGR1 induction (AT1) | induction of pro-inflammatory genes ([2]; PMAEC from AGER KO mice) | markers of canonical or non-canonical activation of NFκB ([2]; PMAEC from AGER KO mice) | canonical and non-canonical signalling downstream of NFκB (CXCL2, CXCL12) ([2]; PMAEC from C57bl6 mice) | expression of pro-inflammatory genes (ICAM-1, VCAM-1, TNFα, MCP-1) ([2]; PMAEC from C57bl6 mice, Ang II 1 μM or S100A8/A9) | NFκB-dependent induction of VCAM-1 gene expression ([2]; PMAEC with AGER expression silenced using siRNA) | inhibition of Ang II-dependent p65 induction after pre-treatment with wild-type RAGE362-404 peptide ([1]; AT1R-CHO cells) | inhibition of Ang II-dependent p65 induction with subsequent wild-type RAGE362-404 in thousand-fold excess ([1]; AT1R-CHO cells) | inhibition of Ang II-induced p65 and PCNA gene expression in the absence of targets for RAGE phosphorylation ([1]; AT1R-CHO cells transfected with full length S391Q-cRAGE) | ability of the RAGE construct to be activated and mediate pro-inflammatory signalling in response to Ang II ([1]; construct expressed in AT1R-CHO cells, no wild-type RAGE) | inhibition of RAGE ligand-independent activation of wild-type RAGE by activated AT1R ([1]; summary statement, cell system not given) | inhibition of VCAM-1 induction in response to Ang II or S100A8/A9 ([2]; PMAEC endogenously replete in RAGE)
angiotensin II (DRVYIHPF) [Ang II, cognate ligand of AT1R] | able to induce activation | unable to induce | induction | does not lead to the induction | does not lead to | induction of both canonical and non-canonical signalling | increased expression | preventing |  |  |  |  |  | 
L362WQRRQRRGEERKAPENQEEEEERAELNQAEEPEAGESSTGGP404 (LWQRRQRRGEERKAPENQEEEEERAELNQAEEPEAGESSTGGP; listed as Homo sapiens) [S391A-RAGE362-404, S391A mutant RAGE cytosolic tail; non-functional substitute for RAGE] |  |  |  |  |  |  |  |  | not reversed | observed | maintained; also recorded: inhibitory effects | not activated | inhibits | inhibitory effect
